Data taken from PubChem BioAssay AID2060363 (Molecular Pharmacology Branch, DTP, NCI, 2025).

Test system: 156681-154-R-J1-PDC tumor spheroids, viability % test/control
Test: Anticancer human tumor 156681-154-R-J1-PDC patient-derived melanoma cell line growth inhibition [TAK]
Settings: spheroids with HUVEC and MSC; for IC50: curve of first compound; for viability, T/C: stronger effect = lower value
Text: Combinatorial screen of targeted agents with TAK-243 and ipatasertib in multi-cell type tumor spheroids
A high-throughput screen of multi-cell type tumor spheroids was designed to identify active combinations of targeted small molecules and TAK-243 or ipatasertib. Complex spheroids include a stromal component modeled by human endothelial cells (HUVEC) and fibroblasts modeled by human mesenchymal stem cells (MSCs). The concentration ranges selected for each drug and investigational agent were based upon clinically achievable concentrations if the clinical Cmax of the agent was known.
Compounds. The drugs and investigational agents: TAK-243 (785004), ipatasertib (767898), everolimus (733504), selumetinib (741078), bortezomib (756655), trametinib (758246), ixazomib (758254), vemurafenib (761431), dabrafenib (764134), sapanisertib (764658), alpelisib (765974), and copanlisib (816437), were obtained from the National Cancer Institute (NCI) Developmental Therapeutics Program Chemical Repository. The FDA-approved anticancer drug set is available from the NCI Developmental Therapeutics Program. […] The stock solutions were prepared in dimethyl sulfoxide (DMSO, Sigma-Aldrich, St. Louis, MO, cat. D2650) at 800-fold the tested concentration and stored at -70 degrees C prior to their use. All drugs and investigational agents were tested over a range starting from a high concentration at or near the clinical Cmax and decreasing in half-log increments. If the clinical Cmax for an agent had not been determined, the highest concentration tested was 10 microM.
NCI60 Cell Culture. NCI60 cell lines were obtained from the NCI Developmental Therapeutics Program Tumor Repository. For each lot of cells, the Repository performed Applied Biosystems AmpFLSTR Identifiler testing with PCR amplification to confirm consistency with the published Identifier STR profile for each cell line. Cells were kept in continuous culture for no more than 20 passages. The optimal seeding densities for each of the cell lines at each time point assessed were determined prior to performing the concentration response studies. Briefly, the NCI60 human tumor lines were grown as monolayers in RPMI 1640 medium supplemented with 10% FBS and 2 mmol/L L-glutamine.
An additional 2 lines were from the NCI60 cell line panel including melanomas, MALME-3M and SK-MEL-2. Pooled donor human umbilical vein endothelial cells (HUVEC, Lonza, cat. CC-2519) and human mesenchymal stem cells (hMSC, Lonza, cat. PT-2501) were purchased from Lonza (Walkersville, MD).
PDMR cell lines were grown in complete medium (DC medium): Dulbecco's modified Eagle's medium (DMEM)/F12 supplemented with 5% fetal bovine serum (FBS), 2 mM L-glutamine, 100 U/mL penicillin and 100 µg/ml streptomycin, 0.4 µg/ml hydrocortisone, 10 ng/ml epidermal growth factor (EGF) recombinant human protein, 24 µg/mL adenine, and 0.1 mg/mL primocin. During culture from frozen stock vials, PDMR cells were cultured in the same medium containing 10 µM Y-27632 (see Table 3). The PDCs were cultured in complete DMEM/F12 media without 10 microM Y-27632 dihydrochloride for at least two passages prior to the screen. The pooled donor HUVEC and hMSC were cultured in endothelial cell growth medium 2 (PromoCell, Heidelberg, Germany, cat. C-22011) and mesenchymal stem cell growth medium 2 (PromoCell, cat. C-28009), respectively. For all experiments, HUVEC and hMSC were used at passages </=5.
For the pre-screen, cell seeding densities were determined from a titration spanning the range from 5,000 to 313 cells per well. The mct-spheroids including 60% malignant cells, 25% HUVEC and 15% MSC dispensed as a mixture into U-bottom Ultra-Low Attachment 384-well plates (Corning, NY)
High-throughput Drug Combination Screening.
Prior to their inoculation into 384-well plates, malignant cells, HUVEC, and hMSC were removed from T flasks using TrypLE express (Thermo Fisher Scientific, cat. 12605036) and harvested by centrifugation for 5 min at 233 x g. […]
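Note: spheroids exposed to compounds for 7 days before the endpoint.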

Q: What does the source list for `CC(C)CC(NC(=O)C(Cc1ccccc1)NC(=O)c1cnccn1)B(O)O` (stereo not given) + CC(C)NCC(C(=O)N1CCN(c2ncnc3c2C(C)CC3O)CC1)c1ccc(Cl)cc1?
A: IC50 (second compound 0.3 µM): 2.09 nM; IC50 (second compound 0.949 µM): 1.76 nM; IC50 (second compound 3 µM): 1.44 nM; IC50 (second compound 9.49 µM): < 0.0316 nM; IC50 (second compound 30 µM): < 0.0316 nM; viability, T/C (second compound 0.3 µM, first compound 31.6 pM): 98.5%; viability, T/C (second compound 0.3 µM, first compound 0.0001 µM): 97%; viability, T/C (second compound 0.3 µM, first compound 0.000316 µM): 91.9%; viability, T/C (second compound 0.3 µM, first compound 0.001 µM): 97.3%; viability, T/C (second compound 0.3 µM, first compound 0.00316 µM): 23.9%; viability, T/C (second compound 0.3 µM, first compound 0.01 µM): 0.32%; viability, T/C (second compound 0.949 µM, first compound 31.6 pM): 85.2%; viability, T/C (second compound 0.949 µM, first compound 0.0001 µM): 87.4%; viability, T/C (second compound 0.949 µM, first compound 0.000316 µM): 91%; viability, T/C (second compound 0.949 µM, first compound 0.001 µM): 90.1%; viability, T/C (second compound 0.949 µM, first compound 0.00316 µM): 9.77%; viability, T/C (second compound 0.949 µM, first compound 0.01 µM): 0.19%; viability, T/C (second compound 3 µM, first compound 31.6 pM): 63.9%; viability, T/C (second compound 3 µM, first compound 0.0001 µM): 67.6%; viability, T/C (second compound 3 µM, first compound 0.000316 µM): 66%; viability, T/C (second compound 3 µM, first compound 0.001 µM): 66.7%; viability, T/C (second compound 3 µM, first compound 0.00316 µM): 15.7%; viability, T/C (second compound 3 µM, first compound 0.01 µM): 0.22%; viability, T/C (second compound 9.49 µM, first compound 31.6 pM): 40.6%; viability, T/C (second compound 9.49 µM, first compound 0.0001 µM): 39%; viability, T/C (second compound 9.49 µM, first compound 0.000316 µM): 37.8%; viability, T/C (second compound 9.49 µM, first compound 0.001 µM): 37.6%; viability, T/C (second compound 9.49 µM, first compound 0.00316 µM): 7.12%; viability, T/C (second compound 9.49 µM, first compound 0.01 µM): 0.21%; viability, T/C (second compound 30 µM, first compound 31.6 pM): 17.8%; viability, T/C (second compound 30 µM, first compound 0.0001 µM): 18.6%; viability, T/C (second compound 30 µM, first compound 0.000316 µM): 16.9%; viability, T/C (second compound 30 µM, first compound 0.001 µM): 17.3%; viability, T/C (second compound 30 µM, first compound 0.00316 µM): 1.86%; viability, T/C (second compound 30 µM, first compound 0.01 µM): 0.31%
